Columns and labels:
[1] = system: Wheat (Triticum aestivum) seeds of the variety Arina; assay: Wheat assay (plant area and root curliness); assay type: in vivo; settings: wheat var. Arina seeds in mini-pouches with 5 mL compound solution; twelve days after sowing/application
Protocol: Two bioassays were developed in order to assay the activity of the compounds of the present invention. In the first assay, the activity of the compound was quantified in beans based on its effect on the elongation of the petiole of the second leaf. In the second assay, the compound's effect on the root growth of wheat was determined.
The test compounds were dissolved in small volumes of dimethyl sulfoxide and diluted to the appropriate concentration with water. Wheat (Triticum aestivum) seeds of the variety Arina were sown in mini-pouches (10.5×9.0 cm) containing 5 mL of the appropriate compound solution. The mini pouches were stored at 17° C. for three days to enable the seeds to germinate. Plants were then stored at 5° C. Twelve days after sowing/application, plants were removed from the mini-pouches and scanned. The effect of the compounds was quantified by determining plant (root and shoot) area and curliness of the roots (curliness is an indicator of brassinosteroid-type activity).

Row | Compound | melting point | curliness of the roots (indicator of brassinosteroid-type activity) [1]
1 | N#Cc1cc(I)cnc1NC(=O)CCC(=O)O [Compound A4, 4-[(3-cyano-5-iodo-2-pyridyl)amino]-4-oxo-butanoic acid] | 215 to 218 °C | –
2 | COC(=O)CCC(=O)Nc1ccc(-c2nnn[nH]2)cn1 [Compound A65, Methyl 4-oxo-4-[[5-(1H-tetrazol-5-yl)-2-pyridyl]amino]butanoate] | 246 to 248 °C | –
3 | O=C(O)CCC(=O)Nc1ccc(C(F)(F)F)cn1 [Compound A19, 4-oxo-4-[[5-(trifluoromethyl)-2-pyridyl]amino]butanoic acid] | – | curly root phenotype
4 | CCOc1cc(NC(=O)CCC(=O)OC)ncc1Br [Compound A38, Methyl 4-[(5-bromo-4-ethoxy-2-pyridyl)amino]-4-oxo-butanoate] | – | curly root phenotype
5 | CCOc1cc(NC(=O)CCC(=O)O)ncc1Cl [Compound A32, 4-[(5-chloro-4-ethoxy-2-pyridyl)amino]-4-oxo-butanoic acid] | – | curly root phenotype
6 | COC(=O)CCC(=O)Nc1ccc(C#N)cn1 [Compound A1, methyl 4-[(5-cyano-2-pyridyl)amino]-4-oxo-butanoate] | 161 to 164 °C | curly root phenotype
7 | COC(=O)C(C)(C)CC(=O)Nc1ccc(C#N)cn1 [Compound B1, Methyl 4-[(5-cyano-2-pyridyl)amino]-2,2-dimethyl-4-oxo-butanoate] | 129 °C | –
8 | CCOC(=O)CCC(=O)Nc1ccc(C#N)cn1 [Compound A22, Ethyl 4-[(5-cyano-2-pyridyl)amino]-4-oxo-butanoate] | – | curly root phenotype
9 | CCOc1cc(NC(=O)CCC(=O)O)ncc1Br [Compound A39, 4-[(5-bromo-4-ethoxy-2-pyridyl)amino]-4-oxo-butanoic acid] | – | curly root phenotype
10 | N#Cc1ccc(NC(=O)CCC(=O)O)nc1 [Compound A2, 4-[(5-cyano-2-pyridyl)amino]-4-oxo-butanoic acid] | 220 to 221 °C | curly root phenotype
11 | CCOc1cc(NC(=O)CCC(=O)OC)ncc1Cl [Compound A31, Methyl 4-[(5-chloro-4-ethoxy-2-pyridyl)amino]-4-oxo-butanoate] | – | curly root phenotype

Reference: patent US9345244B2, “Plant growth regulating compounds” (Syngenta Participations AG, priority 2011, dated 2016)
